Source: the NIST ThermoML archive (doi:10.1021/je2008704)
± gives the expanded uncertainty stated by the source.

Details: Liquid, Ebulliometric method (Recirculating still)

OCCO [1,2-ethanediol]
vapor or sublimation pressure (412.81 K): 13.33 ± 0.06 kPa
vapor or sublimation pressure (422.78 K): 20 ± 0.06 kPa
vapor or sublimation pressure (430.26 K): 26.66 ± 0.06 kPa
vapor or sublimation pressure (436.37 K): 33.33 ± 0.07 kPa
vapor or sublimation pressure (441.5 K): 40 ± 0.07 kPa
vapor or sublimation pressure (445.96 K): 46.66 ± 0.07 kPa
vapor or sublimation pressure (449.93 K): 53.33 ± 0.07 kPa
vapor or sublimation pressure (453.52 K): 60 ± 0.07 kPa
vapor or sublimation pressure (456.78 K): 66.66 ± 0.07 kPa
vapor or sublimation pressure (459.79 K): 73.33 ± 0.08 kPa
vapor or sublimation pressure (462.58 K): 79.99 ± 0.08 kPa
vapor or sublimation pressure (465.18 K): 86.66 ± 0.08 kPa
vapor or sublimation pressure (467.62 K): 93.32 ± 0.08 kPa
vapor or sublimation pressure (469.48 K): 98.66 ± 0.09 kPa
vapor or sublimation pressure (470.02 K): 100.4 ± 0.1 kPa

CCO [ethanol]
vapor or sublimation pressure (329.67 K): 40 ± 0.08 kPa
vapor or sublimation pressure (336.06 K): 53.33 ± 0.08 kPa
vapor or sublimation pressure (341.23 K): 66.66 ± 0.09 kPa
vapor or sublimation pressure (345.59 K): 79.99 ± 0.1 kPa
vapor or sublimation pressure (349.38 K): 93.32 ± 0.1 kPa
vapor or sublimation pressure (351.03 K): 99.74 ± 0.11 kPa

O [water]
vapor or sublimation pressure (349.09 K): 40 ± 0.07 kPa
vapor or sublimation pressure (356.17 K): 53.33 ± 0.07 kPa
vapor or sublimation pressure (361.87 K): 66.66 ± 0.08 kPa
vapor or sublimation pressure (366.69 K): 79.99 ± 0.09 kPa
vapor or sublimation pressure (370.88 K): 93.32 ± 0.09 kPa
vapor or sublimation pressure (372.76 K): 100 ± 0.1 kPa
